# Data published in patent US9605029B2, “Antibody-binding peptide” (NATIONAL INSTITUTE OF ADVANCED INDUSTRIAL SCIENCE AND …, priority 2013, dated 2017).
# pKd, pKi: −log10 of the molar value. Where two headings read alike, the source gives them in different places. Ends that are not written are not given here.
# How the values were obtained:
# [1] = test system: Fc region (Jackson ImmunoResearch Laboratories, Inc.) labeled with horseradish peroxidase (HRP); assay: ELISA of recombinant phages displaying polypeptides (Example 1, 6); type: binding, human; conditions: recombinant T7 phage displaying the polypeptide, absorbance at 415 nm
# Procedure: 6) In this section, it will be stated as an example that the binding activity of recombinant phages transformed by nucleic acids encoding the amino acid sequences represented by SEQ ID NOs: 2 to 9 and 11 to 19 was measured by Enzyme Linked Immuno-Sorbent Assay (ELISA).
# DNA molecules encoding the amino acid sequences of SEQ ID NOs: 2 to 9 and 11 to 19 were amplified by a polymerase chain reaction (PCR). PCR was carried out using KOD DNA polymerase (TOYOBO) under reaction conditions according to the accompanying manual. The amplified DNA molecules were each digested with restriction enzymes EcoRI and HindIII and ligated to 3′ terminal of g10 gene on T7 phage genomic DNA. Ligation to T7 phage genomic DNA was performed by use of a sample attached to T7Select10-3 Cloning Kit (Novagen) under the reaction conditions and in accordance with the procedure described in the accompanying T7Select (registered trade mark) System Manual. Using T7 phage genomic DNA ligated, T7 phage was packaged in a test tube by T7Select Packaging Kit (Novagen) under the reaction conditions in accordance with T7Select (registered trade mark) System Manual (Novagen). Subsequently, phage plaques were formed in accordance with T7Select (registered trade mark) System Manual (Novagen). From each of the plaques, a recombinant phage displaying the polypeptide was isolated. To MICROTEST (registered trade mark) 96 (BECTON, DICKINSON AND COMPANY), a culture solution (0.2 mL) of Escherichia coli BL5403 strain cultured in LB medium until O.D.600 reached 1.0 was poured to infect with the Escherichia coli cells each of the recombinant phages isolated from plaques and allowed to stand still at 37° C. for 12 hours to proliferate phages. The culture solution (10 μL) containing these phages was diluted in 90 μL of TBS buffer (50 mM Tris-HCl, 150 mM NaCl, pH 7.4) to prepare measurement samples.
# The measurement samples were poured to MEDISORP 96 well microplate (Nunc) and allowed to stand still for one hour to allow the phage to physically adsorb to the plate. After the supernatant was removed, SuperBlock (registered trade mark) T20 (TBS) Blocking Buffer (Thermo […]) (150 μL) was poured to the plate and allowed to stand still for one hour to block the surface of the plate. The plate was washed three times with TBS-T buffer (50 mM Tris-HCl, 150 mM NaCl, 0.1% Tween 20 (registered trade mark), pH 7.4). To the plate, TBS-T buffer (100 μL) containing an Fc region (Jackson ImmunoResearch Laboratories, Inc.) (0.2 μg/mL) labeled with horseradish peroxidase (HRP) was added and allowed to stand still for one hour. After the plate was washed three times with TBS-T buffer, ABTS One Component HRP Microwell Substrate (BioFX) (100 μL) was poured to the plate. Binding activity was detected through a color reaction. The absorbance at 415 nm (O.D.415) was measured by a microplate absorbance reader Sunrise R (TECAN GROUP LTD.). TBS-T buffer containing no phages was used as a negative control in a control experiment.
# ELISA results of the recombinant phages displaying polypeptides containing amino acid sequences represented by SEQ ID NOs: 2 to 9 and the recombinant phages displaying polypeptides containing amino acid sequences represented by SEQ ID NOs: 11 to 19 are shown in Table 2A and Table 2B, respectively.
# human IgG = conditions: competitive reaction with protein A; read-out: competitive inhibitory capacity Ki; cited from earlier work
# IgG [2] = conditions: Non Patent Literature 4; read-out: equilibrium dissociation constant, KD; cited from earlier work
# [3] = molecular target: T1, Fc region prepared by digesting human monoclonal antibody IgG with papain (Homo sapiens, UniProt P01857); assay: Surface plasmon resonance, polypeptides on immobilized Fc region prepared from human monoclonal IgG (Example 2, 3) and 4); Example 8); type: binding
# T1 construct: The Fc region to be immobilized to a sensor chip was prepared, by digesting human monoclonal antibody IgG with papain; made in house; host or cells: papain digest of human monoclonal IgG (Pierce Fab Preparation Kit), then MabSelect SuRe, HiTrap DEAE and Superdex 200
# Procedure: The polypeptides, which were previously synthesized in an organic chemical manner were purchased from bio[…], were diluted with HBS-T buffer and controlled so as to have a concentration of 500, 400, 300, 200 or 100 nM. The surface plasmon resonance test was performed by using Biacore T100 (GE Healthcare). The Fc region to be immobilized to a sensor chip was prepared, by digesting human monoclonal antibody IgG with papain, in accordance with the instruction attached to Pierce (registered trade mark) Fab Preparation Kit (Thermo […]), followed by purifying by affinity chromatography using MabSelect SuRe (GE Healthcare), HiTrap DEAE anion exchange chromatography (GE Healthcare) and gel filtration chromatography using Superdex 200 (GE Healthcare). The Fc region prepared was immobilized to Sensor Chip CM5 (GE Healthcare) by the amine coupling method. The binding activity of the synthesized peptides prepared was measured and equilibrium dissociation constants were determined. Data were processed by use of Biacore TOO Evaluation Software (GE Healthcare).
# 4) In this section, it will be stated as an example that the binding activity of a polypeptide consisting of an amino acid sequence (referred to as p17) of SEQ ID NO: 57 was measured by surface plasmon resonance. The polypeptide was prepared by cleaving thioredoxin fusion protein p17_trx consisting of the amino acid sequence of SEQ ID NO: 86 with a protease and removing a thioredoxin portion. Since the thioredoxin fusion protein, which is produced by expression vector pET-48b (Novagen), has an HRV 3C protease cleavage site in the amino acid sequence, the desired polypeptide ligated to the C terminal can be obtained by use of protease.
# DNA (SEQ ID NO: 124) encoding the thioredoxin fusion protein (SEQ ID NO: 86) containing p17 was synthesized by PCR and introduced to an expression vector, pET-48b (Novagen). Using the expression vector and in accordance with the same procedure as in Example, 1, 5), the thioredoxin fusion protein was prepared. The thioredoxin fusion protein (40 mg) was digested with 100 units of HRV 3C Protease (Novagen) at 4° C. under the reaction conditions according to the accompanying manual. The digested product was diluted in a 6 M guanidine hydrochloride solution and purified by gel filtration chromatography using Superdex Peptide 10/300 GL (GE Healthcare). Subsequently reverse phase chromatography using μRPC C2/C18 ST 4.6/100 (GE Healthcare) was performed to prepare a polypeptide p17 consisting of an amino acid sequence of SEQ ID NO: 57.
# Subsequently, the binding activity of p17 prepared was measured by surface plasmon resonance by use of Biacore T100 (GE Healthcare).
# Subsequently, the binding activity of five types of polypeptides prepared above was analyzed by surface plasmon resonance. Biacore T100 (GE Healthcare) was used in measurement. […]
# [4] = molecular target: human Fc region manufactured by Jackson ImmunoResearch Laboratories, Inc.; assay: Surface plasmon resonance, synthetic polypeptides on immobilized human Fc region (Example 1, 4); type: binding; conditions: synthetic polypeptide, 25° C., HBS-T buffer pH 7.4
# Procedure: The polypeptides previously synthesized in an organic chemical manner were purchased from bio[…]. Biacore T100 (GE Healthcare) was used as a surface plasmon resonance measurement apparatus. The human Fc region manufactured by Jackson ImmunoResearch Laboratories, Inc. was immobilized to Sensor Chip CM5 (GE Healthcare) in accordance with an amine coupling method using an Amine Coupling Kit (GE Healthcare). […] The binding activity of these polypeptides was measured at a reaction temperature of 25° C. The measurement data were processed by Biacore TOO Evaluation Software (GE Healthcare).
# rabbit IgG = conditions: Non Patent Literature 5; cited from earlier work
# IgG [5] = conditions: domains by themselves; Non Patent Literature 28 and 29; cited from earlier work
# [6] = synthetic polypeptide, read-out: equilibrium dissociation constants KD
# [7] = variant polypeptide with alanine substitution, read-out: Equilibrium dissociation constant of p17 variant KD
# [8] = read-out: equilibrium dissociation constant KD
# rabbit IgG, sequence (P01870 101-323 limits assumed): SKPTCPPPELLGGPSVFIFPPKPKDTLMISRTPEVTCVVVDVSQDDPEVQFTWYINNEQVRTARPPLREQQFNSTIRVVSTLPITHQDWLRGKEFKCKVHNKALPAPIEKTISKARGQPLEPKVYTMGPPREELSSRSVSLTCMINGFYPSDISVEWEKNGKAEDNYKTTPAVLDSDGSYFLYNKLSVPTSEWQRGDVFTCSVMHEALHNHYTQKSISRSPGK
substance,measurement,setting,value
"3 (YDPGTGTWRSYLRFGGG; IgG binding peptide, H3) [compound 3]",O.D. 415,[1]; control 0.08,0.278
"4 (YDPYTGTWRSSIWVLSG; IgG binding peptide, D5) [compound 4]",O.D. 415,[1]; control 0.08,0.165
"5 (YDPGTGTWRSWLSFNVG; IgG binding peptide, E7) [compound 5]",O.D. 415,[1]; control 0.08,0.155
"6 (YDPWTGTWRSFIWGGGG; IgG binding peptide, sC12) [compound 6]",O.D. 415,[1]; control 0.08,0.149
"7 (YDPRTGTWLLYASRLLG; IgG binding peptide, G3) [compound 7]",O.D. 415,[1]; control 0.08,0.214
"8 (YDPVTGTWTSSIASWMG; IgG binding peptide, G11) [compound 8]",O.D. 415,[1]; control 0.08,0.223
"9 (YDPRTGTWRRSSLSYSG; IgG binding peptide, sA7) [compound 9]",O.D. 415,[1]; control 0.08,0.193
"12 (AGSRRAHGYDPRTGTWRSSIAYGGG; IgG binding peptide, 2A4) [compound 12]",O.D. 415,[1]; control 0.101,0.267
"14 (SWRRRGSSYDPRTGTWRSSIAYGGG; IgG binding peptide, 2H1) [compound 14]",O.D. 415,[1]; control 0.101,0.282
"15 (TGRGRSARYDPRTGTWRSSIAYGGG; IgG binding peptide, 2F2) [compound 15]",O.D. 415,[1]; control 0.101,0.396
"16 (HWVNGRSGYDPRTGTWRSSIAYGGG; IgG binding peptide, 2F4) [compound 16]",O.D. 415,[1]; control 0.101,0.373
"18 (GSVVRWRGYDPRTGTWRSSIAYGGG; IgG binding peptide, 2F7) [compound 18]",O.D. 415,[1]; control 0.101,0.36
"19 (GAVYRRSFYDPRTGTWRSSIAYRGG; IgG binding peptide, 2F9) [compound 19]",O.D. 415,[1]; control 0.101,0.353
Asp Cys Ala Trp His Leu Gly Glu Leu Val Trp Cys Thr [Fc-III],pKi,human IgG,7.00
same,pKd,IgG [2],6.73
DAAWHLGELVWATYYDPETGTWAPDWRLMQGQ [SEQ ID NO: 25],pKd,[3]; [6],6.29
DAAWHLGELVWATYYDPETGTWLPDWQTMAQK [SEQ ID NO: 26],pKd,[3]; [6],7.00
DAAWHLGELVWATYYDPETGTWQPDWLYMTTR [SEQ ID NO: 24],pKd,"[3]; synthetic polypeptide, read-out: KD",6.92
GPGISAFSPGRGVYDPETGTWYDAAWHLGELVWATYYDPETGTWEADWQRMLGQ [SEQ ID NO: 174],pKd,[3]; [7],8.25
GPGISAFSPGRGVYDPETGTWYDAAWHLGELVWATYYDPETGTWEPAWQRMLGQ [SEQ ID NO: 175],pKd,[3]; [7],7.35
GPGISAFSPGRGVYDPETGTWYDAAWHLGELVWATYYDPETGTWEPDAQRMLGQ [SEQ ID NO: 176],pKd,[3]; [7],6.70
GPGISAFSPGRGVYDPETGTWYDAAWHLGELVWATYYDPETGTWEPDWQAMLGQ [SEQ ID NO: 177],pKd,[3]; [7],8.11
GPGISAFSPGRGVYDPETGTWYDAAWHLGELVWATYYDPETGTWEPDWQRMLGQ [SEQ ID NO: 57],pKd,"[3]; polypeptide obtained by protease cleavage of p17_trx, read-out: KD",8.80
same,pKd,"[3]; polypeptide obtained by protease cleavage of p17_trx, read-out: equilibrium dissociation constant KD",8.80
GVVRQWSGGGGSGGGGRSSIAYGGG [SEQ ID NO: 21],pKd,[4]; [8],4.64
RSSIAYGGG [SEQ ID NO: 22],pKd,[4]; read-out: KD,3.96
same,pKd,[4]; [8],3.96
"peptide from a synthesized branched tetrapolypeptide library (Arg Thr Xaa)4 Lys2 Lys Gly, competitively works with protein A (Fassina et al.) [TG19318]",pKd,rabbit IgG,6.52
"protein A: IgG-binding protein derived from Staphylococcus, conventionally used",pKd,IgG [5],~8.00
"protein G: bacteria-derived natural IgG-binding protein, conventionally used",pKd,IgG [5],~6.31
